# Read-outs that look alike come from different tables or passages of the source.
# Key:
# [1] = test system: Zika virus; experiment: Virucidal activity: cell-free incubation of virus sample with drug at 37°C, then TCID50 titration; details: for virucidal activity (loss of viral infectivity): incubation at 37°C in the absence of cells, EEY 10 µM, XAN 10 µM, AMA 800 µM for 4 hours, or 6 µM over time
# Source text: (§1) • Figure 1. Schematic representation of flavivirus life cycle and steps inhibited by eeyarestatin I. The antiviral effect observed during treatment with eeyarestatin I can be due to the inhibition of at least three different steps of the life cycle (indicated with a red star and highlighted in red letters). A, Inhibition of the valosin-containing protein / p97 ATPase (VCP/p97) and/or ERAD pathway indirectly affects virus replication on ER factories. B, Inhibition of VCP/p97 affects virus uncoating. C, Novel mechanism of action described in this invention: eeyarestatin I reduces virus particle infectivity before entering the cell (discovery patented here). • Figure 2. Cell viability after exposure to VCP/p97 inhibitors. Viability of Vero (African green monkey kidney fibroblasts) cells treated with VCP/p97 inhibitors xanthohumol (XAN) and eeyarestatin I (EEY) during 24 (A) or 48 hours (B). Cellular viability is represented as the percentage of metabolically active cells relative to mock-treated cells (CellTiter-Blue Cell Viability Assay, Promega). There are given the 50% cytotoxicity concentration (CC50) values for each drug and exposure time tested. • Figure 3. VCP/p97 drugs Xanthohumol and eeyarestatin I inhibit virus replication in cell culture (Vero cells). Virus titres measured by 50% tissue culture infectious dose (TCID50) in the supernatants of Zika virus-infected cells. A, Schematic representation of the assay. A monolayer of Vero cells was inoculated with Zika virus at a multiplicity of infection (MOI) of 1 TCID50 per cell (input). After 1 hour of incubation at 37°C, to allow virus adsorption, the supernatant was removed, the cells washed, and fresh media containing each drug at the concentrations indicated was added. At 24 hours post infection the cellular supernatants were collected (virus progeny) and the virus yields quantified by TCID50 (virus titration). B-C, Changes in virus titres and cell viability in cultures treated with increasing concentrations of eeyarestatin I (B) and xanthohumol (C) for 24 hours. The 50% inhibitory concentration (IC50) and the selectivity index (SI) values are provided for each drug. […] A, Schematic representation of the assay. The virus sample is directly incubated at 37°C in the presence of increasing concentrations of drugs. The treated sample is collected at different time points and directly titrated by TCID50. B-D Decrease in infectivity observed in a virus sample treated with amantadine (AMA), xanthohumol (XAN) or eeyarestatin I (EEY) and compared to a virus sample untreated (no drug) or mock-treated with vehicle (DMSO). B, Zika virus was incubated during 4 hours at 37°C in the presence of EEY (10 µM), XAN (10 µM), AMA (800 µM) or in the absence of drugs. C, Changes in the infectivity along time of a Zika virus sample incubated at 37°C in the presence of 6 µM EEY or XAN, or in the absence of drugs (No drug, DMSO). D, Changes in Usutu virus infectivity along time for a sample incubated at 37°C in the presence of 6 µM EEY or XAN, or in the absence of drugs (No drug, DMSO). • Figure 5. Eeyarestatin I exerts virucidal activity in a dose-dependent manner. […] Eeyarestatin I half maximum inhibitory concentration (IC50) is <1 µM for both Zika (A) and Usutu (B) viruses. • Figure 6. […] A, Schematic representation of the procedure to select adapted virus. In each virus passage, 100 µl of neat virus from the previous passage are inoculated to a monolayer of 10^5 Vero cells. After cell wash, the monolayer is incubated at 37°C and 5% CO2 in 1 ml of media (DMEM, 10% foetal bovine serum, 100 units penicillin-streptomycin) in the presence (EEY-adapted) or absence (untreated) of 5 µM eeyarestatin I. At 48 hours post-infection, the cellular supernatants are collected, titrated, and employed for the following virus passage. This process is repeated for a total of nine viral transfers. […]
# [2] = test system: Zika virus; experiment: Inhibition of Zika virus replication in infected Vero cell culture (MOI 1, virus yield by TCID50); type: cell-based; details: for Zika virus replication during infections in cell culture: Vero cells, MOI of 1, drug added after 1 hour adsorption, 24 hours post infection
# Source text: • Figure 1. Schematic representation of flavivirus life cycle and steps inhibited by eeyarestatin I. The antiviral effect observed during treatment with eeyarestatin I can be due to the inhibition of at least three different steps of the life cycle (indicated with a red star and highlighted in red letters). A, Inhibition of the valosin-containing protein / p97 ATPase (VCP/p97) and/or ERAD pathway indirectly affects virus replication on ER factories. B, Inhibition of VCP/p97 affects virus uncoating. C, Novel mechanism of action described in this invention: eeyarestatin I reduces virus particle infectivity before entering the cell (discovery patented here). • Figure 2. Cell viability after exposure to VCP/p97 inhibitors. Viability of Vero (African green monkey kidney fibroblasts) cells treated with VCP/p97 inhibitors xanthohumol (XAN) and eeyarestatin I (EEY) during 24 (A) or 48 hours (B). Cellular viability is represented as the percentage of metabolically active cells relative to mock-treated cells (CellTiter-Blue Cell Viability Assay, Promega). There are given the 50% cytotoxicity concentration (CC50) values for each drug and exposure time tested. • Figure 3. VCP/p97 drugs Xanthohumol and eeyarestatin I inhibit virus replication in cell culture (Vero cells). Virus titres measured by 50% tissue culture infectious dose (TCID50) in the supernatants of Zika virus-infected cells. A, Schematic representation of the assay. A monolayer of Vero cells was inoculated with Zika virus at a multiplicity of infection (MOI) of 1 TCID50 per cell (input). After 1 hour of incubation at 37°C, to allow virus adsorption, the supernatant was removed, the cells washed, and fresh media containing each drug at the concentrations indicated was added. At 24 hours post infection the cellular supernatants were collected (virus progeny) and the virus yields quantified by TCID50 (virus titration). B-C, Changes in virus titres and cell viability in cultures treated with increasing concentrations of eeyarestatin I (B) and xanthohumol (C) for 24 hours. […]
# [3] = test system: Vero cells; experiment: Cell viability of Vero cells after exposure to VCP/p97 inhibitors (CellTiter-Blue Cell Viability Assay); type: cell-based, African green monkey
# Source text: • Figure 1. Schematic representation of flavivirus life cycle and steps inhibited by eeyarestatin I. The antiviral effect observed during treatment with eeyarestatin I can be due to the inhibition of at least three different steps of the life cycle (indicated with a red star and highlighted in red letters). A, Inhibition of the valosin-containing protein / p97 ATPase (VCP/p97) and/or ERAD pathway indirectly affects virus replication on ER factories. B, Inhibition of VCP/p97 affects virus uncoating. C, Novel mechanism of action described in this invention: eeyarestatin I reduces virus particle infectivity before entering the cell (discovery patented here). • Figure 2. Cell viability after exposure to VCP/p97 inhibitors. Viability of Vero (African green monkey kidney fibroblasts) cells treated with VCP/p97 inhibitors xanthohumol (XAN) and eeyarestatin I (EEY) during 24 (A) or 48 hours (B). Cellular viability is represented as the percentage of metabolically active cells relative to mock-treated cells (CellTiter-Blue Cell Viability Assay, Promega). […] Virus titres measured by 50% tissue culture infectious dose (TCID50) in the supernatants of Zika virus-infected cells. […] At 24 hours post infection the cellular supernatants were collected (virus progeny) and the virus yields quantified by TCID50 (virus titration). […]
# [4] = test system: Usutu virus; experiment: Virucidal activity: cell-free incubation of virus sample with drug at 37°C, then TCID50 titration; details: for virucidal activity (loss of viral infectivity): incubation at 37°C in the absence of cells, 6 µM over time
# Source text: as §1
# [5] = test system: Zika virus passaged during nine consecutive transfers (p9); experiment: Virucidal activity on Zika virus populations after nine passages with or without 5 µM eeyarestatin I (resistance selection)
# Source text: • Figure 1. Schematic representation of flavivirus life cycle and steps inhibited by eeyarestatin I. The antiviral effect observed during treatment with eeyarestatin I can be due to the inhibition of at least three different steps of the life cycle (indicated with a red star and highlighted in red letters). A, Inhibition of the valosin-containing protein / p97 ATPase (VCP/p97) and/or ERAD pathway indirectly affects virus replication on ER factories. B, Inhibition of VCP/p97 affects virus uncoating. C, Novel mechanism of action described in this invention: eeyarestatin I reduces virus particle infectivity before entering the cell (discovery patented here). • Figure 2. Cell viability after exposure to VCP/p97 inhibitors. Viability of Vero (African green monkey kidney fibroblasts) cells treated with VCP/p97 inhibitors xanthohumol (XAN) and eeyarestatin I (EEY) during 24 (A) or 48 hours (B). Cellular viability is represented as the percentage of metabolically active cells relative to mock-treated cells (CellTiter-Blue Cell Viability Assay, Promega). There are given the 50% cytotoxicity concentration (CC50) values for each drug and exposure time tested. • Figure 3. VCP/p97 drugs Xanthohumol and eeyarestatin I inhibit virus replication in cell culture (Vero cells). Virus titres measured by 50% tissue culture infectious dose (TCID50) in the supernatants of Zika virus-infected cells. A, Schematic representation of the assay. A monolayer of Vero cells was inoculated with Zika virus at a multiplicity of infection (MOI) of 1 TCID50 per cell (input). After 1 hour of incubation at 37°C, to allow virus adsorption, the supernatant was removed, the cells washed, and fresh media containing each drug at the concentrations indicated was added. At 24 hours post infection the cellular supernatants were collected (virus progeny) and the virus yields quantified by TCID50 (virus titration). B-C, Changes in virus titres and cell viability in cultures treated with increasing concentrations of eeyarestatin I (B) and xanthohumol (C) for 24 hours. The 50% inhibitory concentration (IC50) and the selectivity index (SI) values are provided for each drug. […] A, Schematic representation of the assay. The virus sample is directly incubated at 37°C in the presence of increasing concentrations of drugs. The treated sample is collected at different time points and directly titrated by TCID50. B-D Decrease in infectivity observed in a virus sample treated with amantadine (AMA), xanthohumol (XAN) or eeyarestatin I (EEY) and compared to a virus sample untreated (no drug) or mock-treated with vehicle (DMSO). B, Zika virus was incubated during 4 hours at 37°C in the presence of EEY (10 µM), XAN (10 µM), AMA (800 µM) or in the absence of drugs. […]
# [6] = cell-free incubation at 37°C, listed as Eeyarestatin I, read-out: IC50 (virucidal activity)
# [7] = cell-free incubation at 37°C, read-out: IC50 (virucidal activity)
Structure (SMILES),virucidal activity (loss of viral infectivity) [1],Zika virus replication during infections in cell culture [2],toxicity in cell culture ([3]; 5 µM eeyarestatin I),"CC50 ([3]; time = 24 hours, read-out: 50% toxicity for Vero cells (CC50)) [nM]","IC50 [4, 6] [nM]","IC50 [4, 7] [nM]",virucidal activity (loss of viral infectivity) [4],"IC50 ([4]; time = 4 hours, read-out: estimated IC50) [nM]","IC50 [1, 6] [nM]","IC50 [1, 7] [nM]","IC50 ([1]; time = 4 hours, read-out: estimated inhibitory constant) [nM]","IC50 ([5]; EEY-adapted Zika virus p9 (nine passages in 5 µM eeyarestatin I), 37°C for 4 hours) [nM]",IC50 ([5]; adapted Zika virus population (passaged 9 times in the presence of eeyarestatin I)) [nM],"IC50 ([5]; untreated Zika virus p9 (nine passages without drug), 37°C for 4 hours) [nM]",IC50 ([5]; untreated Zika virus population (nine passages in the absence of drugs)) [nM],selectivity index (ratio of CC50 and IC50) ([2]; Zika virus replication in Vero cells)
"NC12CC3CC(CC(C3)C1)C2 [amantadine, reference compound]",did not affect viral infectivity,–,–,–,–,–,–,–,–,–,–,–,–,–,–,–
CC1(C)C(N(O)C(=O)Nc2ccc(Cl)cc2)N(c2ccc(Cl)cc2)C(=O)N1CC(=O)N/N=C/C=C/c1ccc([N+](=O)[O-])o1 (centres unmarked) [eeyarestatin I],significant loss of infectivity,inhibit Zika virus replication,very modest toxicity,24000,< 1000,150,inhibits Usutu virus infectivity,150,< 1000,590,< 600,130,130,310,310,–
"COc1cc(O)c(CC=C(C)C)c(O)c1C(=O)/C=C/c1ccc(O)cc1 [xanthohumol, reference compound]",did not affect viral infectivity,inhibit Zika virus replication,–,–,–,–,no virucidal activity,–,–,–,–,–,–,–,–,> 5

# Reference: EP3909578A1, “ANTIVIRAL COMPOSITION COMPRISING EEYARESTATIN I” (Universidad de Castilla la Mancha, priority 2020, dated 2021)
